The values below come from patent EP0851756B1, “USE OF ONDANSETRON IN THE MANUFACTURE OF A MEDICAMENT FOR THE TREATMENT OF TREMOR” (GLAXO GROUP LIMITED, priority 1995, dated 1997).

The structures appear in SMILES notation. Where “and” joins values, the source holds several entries; their conditions need not be identical. Equal values may be shown once.

Common to all, as to assay type: in vivo, patients
Data set [1] relates to cerebellar tremor caused by MS, cerebellar degeneration or drug toxicity. The data set is described as follows: Placebo-controlled, double blind, crossover study: manual co-ordination (spiral copying, word copying or line drawing) judged by blind observers. Set-up: key to Spiral Writing drug: 0 = none; + = a little; ++ = moderate; +++ = a lot of improvement. How it is done:
(§1) A placebo-controlled, double blind, crossover study of intravenous ondansetron in twenty patients with cerebellar tremor caused by MS, cerebellar degeneration or drug toxicity was conducted. Most had tremor based upon cerebellar involvement from MS; three had familial degenerative disorders involving the cerebellum and one had acquired lithium toxicity. The clinical information and prior treatment of the patients is outlined below in Table 1. Patients were randomly assigned to receive intravenous ondansetron (8mg or a placebo, consisting of normal saline). The drug was given by intravenous bolus injection. Patients were given the alternate agent at a later interval. The principal outcome measure was the change in manual co-ordination tasks as assessed by spiral copying, word copying or line drawing and the time to complete a nine-hole peg test. Only 12 patients had sufficient co-ordination to complete the nine-hole peg test. The clinical outcome was measured at baseline and one hour following the infusion. Figures 1 (a), (b) and (c) represent an attempt to copy a spiral by the first mentioned patient in Table 1. Figure 1(a) represents an attempt prior to treatment with ondansetron; figure 1(b) an attempt after receiving placebo; and figure 1 (c) an attempt after receiving ondansetron.

Data set [2] has the same test system. The data set is described as follows: Placebo-controlled, double blind, crossover study: time to complete a nine-hole peg test. How it is done: as §1, with “infusion.” for “infusion. Figures 1 (a), (b) and (c) represent an attempt to copy a spiral by the first mentioned patient in Table 1. Figure 1(a) represents an attempt prior to treatment with ondansetron; figure 1(b) an attempt after receiving placebo; and figure 1 (c) an attempt after receiving ondansetron.”

For data set [3] the test system is unchanged. The data set is described as follows: Placebo-controlled, double blind, crossover study: subjective response and patient identification of treatment assignment. Also noted: key to Subjective drug response: 0 = none; + = a little; ++ = moderate; +++ = a lot of improvement. How it is done:
A placebo-controlled, double blind, crossover study of intravenous ondansetron in twenty patients with cerebellar tremor caused by MS, cerebellar degeneration or drug toxicity was conducted. Most had tremor based upon cerebellar involvement from MS; three had familial degenerative disorders involving the cerebellum and one had acquired lithium toxicity. The clinical information and prior treatment of the patients is outlined below in Table 1. Patients were randomly assigned to receive intravenous ondansetron (8mg or a placebo, consisting of normal saline). The drug was given by intravenous bolus injection. Patients were given the alternate agent at a later interval. The clinical outcome was measured at baseline and one hour following the infusion. Patient identification of treatment assignment was correct in 12/20 instances and this was based upon efficacy. None believed placebo to be better (p=0.014; Fisher exact ratio).

Data set [4] shares this test system. Description: Clinical observations: tolerability, long-term use, withdrawal, oral dosing.
Setting [5] is: individual patients, 8mg intravenous bolus, baseline vs one hour following the infusion.

With `Cc1nccn1CC1CCc2c(c3ccccc3n2C)C1=O` (stereo not drawn) [ondansetron, 1,2,3,9-tetrahydro-9-methyl-3-[(2-methyl-1H-imidazol-1-yl)methyl]-4H-carbazol-4-one], the “favourable clinical response, MS subgroup” value in data set [1] (MS subgroup of 16 patients, number with a response, p=0.001) turned out to be 13. Moreover, the “favourable clinical response identified by a panel of three blind observers” value in data set [1] (entire study group, 8mg intravenous, p=0.009 vs placebo (Fisher exact ratio)) is listed as 13 of the 20. In addition, the “Spiral Writing drug” value in data set [1] (setting [5]) was “+ (6×) and +++ (4×) and ++ (4×) and 0 (5×)”. The “Spiral Writing drug, Ratio” value in data set [1] (patients with improvement / patients assessed, 8mg intravenous, placebo 1/19) is listed as 13/19. In data set [2] (individual patients, 8mg intravenous bolus, one hour following the infusion), the “9 hole peg-drug” value was 110 secs and 63 secs and 155 secs and 55 secs (2×) and 48 secs and 180 secs and 85 secs and 57 secs and 45 secs and 70 secs and 29 secs. In addition, the “9 hole peg-drug (secs), Mean” value in data set [2] (mean of 12 patients, 8mg intravenous, placebo 87±12) was 79 ± 13 s. For the same compound, in data set [2] (± standard error, 8mg intravenous, placebo 87 ± 12, p=0.04 (Mann Whitney, one tailed, paired)), the “mean time for the completion of the nine hole peg test” value turned out to be 79 ± 13 s. Further, the “Patient identification of treatment assignment correct” value in data set [3] (based upon efficacy, none believed placebo to be better (p=0.014; Fisher exact ratio)) is listed as 12/20. For the same compound, in data set [3] (setting [5]), the Subjective drug response result was “++ (5×) and 0 (8×) and + (3×) and +++ (3×) and + (dysarthria)”. In addition, the speech after treatment result in data set [3] (one patient with cerebellar degeneration too disabled to complete the tasks (Cd2, Table 1)) is “improved speech”. In data set [3] (patients with improvement / patients assessed, 8mg intravenous, placebo 0/18), the “Subjective drug response, Ratio” value is 12/20. Moreover, in data set [4] (long term use), the “sustaining of the effect in the long term” value is given as “could be sustained in the long term”. Moreover, in data set [4] (oral ondansetron (8-16mg)), the “reproduction of the effect of intravenous ondansetron by oral dosing” value is on record as “could be reproduced”. Also, the tolerability entry in data set [4] (patients with cerebellar tremor) is “well tolerated”. Moreover, in data set [4] (withdrawal), the “tremor after withdrawal of the medication” value is recorded as “tremor returning to pre-study levels”.
